Test results taken from BindingDB's records for doi:10.1021/jm9901125 (Sapienza University of Rome, 2000).

Target: T1, Gag-Pol polyprotein [588-1027]/[588-1147] (Human immunodeficiency virus 1, UniProt P04585)
T1 construct: 588-1027; 588-1147
Assay: HIV-1 RT Assay
Details: pH 7.8; 37 °C

## CCOC(=O)c1cc(CO)cn1S(=O)(=O)c1cc(Cl)ccc1N [ethyl 1-[(2-amino-5-chlorobenzene)sulfonyl]-4-(hydroxymethyl)-1H-pyrrole-2-carboxylate]
  IC50: 50 nM

## CC(C)OC(=O)c1cc(CNc2ccccc2)cn1S(=O)(=O)c1cc(Cl)ccc1N [propan-2-yl 1-[(2-amino-5-chlorobenzene)sulfonyl]-4-[(phenylamino)methyl]-1H-pyrrole-2-carboxylate]
  IC50: 300 nM

## CCOC(=O)c1cc(COc2ccccc2)cn1S(=O)(=O)c1cc(Cl)ccc1N [ethyl 1-[(2-amino-5-chlorobenzene)sulfonyl]-4-(phenoxymethyl)-1H-pyrrole-2-carboxylate]
  IC50: 600 nM

## CC(C)OC(=O)c1cc(CO)cn1S(=O)(=O)c1cc(Cl)ccc1N [propan-2-yl 1-[(2-amino-5-chlorobenzene)sulfonyl]-4-(hydroxymethyl)-1H-pyrrole-2-carboxylate]
  IC50: 110 nM

## CCOC(=O)c1cccn1S(=O)(=O)c1cc(Cl)ccc1-n1cccc1 [Ethyl 1-{[5-Chloro-2-(1H-pyrrol-1-yl)phenyl]sulfonyl}-1H-pyrrole-2-carboxylate]
  IC50: > 100000 nM

## CCOC(=O)c1cc(COC)cn1S(=O)(=O)c1cc(Cl)ccc1N [ethyl 1-[(2-amino-5-chlorobenzene)sulfonyl]-4-(methoxymethyl)-1H-pyrrole-2-carboxylate]
  IC50: 600 nM

## CCOC(=O)c1cc(CNc2ccccc2)cn1S(=O)(=O)c1cc(Cl)ccc1N [ethyl 1-[(2-amino-5-chlorobenzene)sulfonyl]-4-[(phenylamino)methyl]-1H-pyrrole-2-carboxylate]
  IC50: 500 nM

## CCOC(=O)c1cc(C)cn1S(=O)(=O)c1cc(Cl)ccc1N [ethyl 1-[(2-amino-5-chlorobenzene)sulfonyl]-4-methyl-1H-pyrrole-2-carboxylate]
  IC50: 80 nM

## C=Cc1cc(C(=O)OCC)n(S(=O)(=O)c2cc(Cl)ccc2N)c1 [ethyl 1-[(2-amino-5-chlorobenzene)sulfonyl]-4-ethenyl-1H-pyrrole-2-carboxylate]
  IC50: 280 nM

## CCOC(=O)c1cccn1S(=O)(=O)c1c(N)cccc1Cl [ethyl 1-[(2-amino-6-chlorobenzene)sulfonyl]-1H-pyrrole-2-carboxylate]
  IC50: > 100000 nM

## CCOC(=O)c1cc(C(C)O)cn1S(=O)(=O)c1cc(Cl)ccc1N (stereo unspecified) [ethyl 1-[(2-amino-5-chlorobenzene)sulfonyl]-4-(1-hydroxyethyl)-1H-pyrrole-2-carboxylate]
  IC50: 170 nM
